We go through 7 compounds from patent publication US9388133B2, “Pyrrole sulfonamide derivative, preparation method for same, and medical application thereof” (Jiangsu Hansoh Pharmaceutical Co., Ltd., priority 2012, dated 2016).

One assay addresses T1, H^+/K^+-ATPase (Sus scrofa, UniProt P19156).
T1 construct: Microsomes of porcine gastric mucosal (rich in H^+/K^+-ATPase) obtained by sucrose gradient centrifugation; from tissue; host or cells: porcine gastric mucosa microsomes (self-manufactured, sucrose/ficoll gradient centrifugation)
Put plainly: H+/K+-ATPase enzyme activity inhibition (malachite green, microsomes of porcine gastric mucosa). It is filed as biochemical. The note with it: pH 6.5, 10 mmol/L KCl, 37° C. 30 min. How it is done: The following in-vitro screening test was used for determining the inhibition effect of the compounds of the present invention on enzyme activity of H^+/K^+-ATPase.
1. microsomes of porcine gastric mucosa (rich in H^+/K^+-ATPase) (self-manufactured)
1. The compounds were prepared into appropriate concentrations of 10000, 1000, 100, 10, 1 and 0.1 nM with 100% DMSO;
2. Buffer solution 1: 50 mmol/L of HEPES-Tris, 5 mmol/L of magnesium chloride, pH of 6.5;
3. Buffer solution 2: 50 mmol/L of HEPES-Tris, 5 mmol/L of magnesium chloride, pH of 6.5, 10 mmol/L of potassium chloride, pH=6.5;
4. ATP: ATP was diluted with the buffer solution 1 to 2 mM;
5. Malachite green solution: 0.12% of malachite green was dissolved in 2.5 moles of a mixture of sulfuric acid, 7.5% ammonium molybdate and 11% Tween 20, the three components were mixed according to a ratio of 100:25:2 during the use.
6. Microsomes of porcine gastric mucosal (rich in H^+/K^+-ATPase) obtained by sucrose gradient centrifugation: a porcine stomach was washed with running water, and immersed into 3 mol/L of concentrated brine for 1-2 min, and then wiped dry; the gastric mucosas were separated, minced, then suspended in a solution of 0.25 mol/L of sucrose, 1 mmol/L of EDTA, and 10 mmol/L of Tris-HCl; homogenization treatment was performed (the ratio was 100 g:330 mL, and 300 mL was further added after the completion of full homogenization), and the resulting homogenate was centrifugalized at 20000G for 30 min to remove the precipitate; the supernatant fluid was taken and centrifugalized at 100000G for 90 min; the precipitate was taken and suspended in 0.25 mol/L of sucrose solution, 0.25 mol/L of sucrose, 7.5% of ficoll were added at the bottom and centrifugalized at 100000G for 5 h. The substances between two liquid surface layers were collected, and then washed with 0.25 mol/L of sucrose solution while being shaken, and the resulting microsomal enzymes were kept at −80° C. for preservation and later use.
10 μL of microsomes of gastric mucosa (H^+/K^+-ATPase) were added to 79 μL of the buffer solution 2, followed by addition of 1 μL of the compound solutions with various concentrations, and then 10 μL of 2 mM ATP were added to start the reaction. It was reacted at 37° C. for 30 min. 30 μL of malachite green solution was added to terminate the reaction, and the reaction solution was kept at room temperature for 20 min, and then an OD value was read at 620 nm on a Victor3 microplate reader, and the inhibition rates of the compounds at various concentrations against H^+/K^+-ATPase were calculated.
Simultaneously, the reaction without addition of potassium chloride was taken as a background, which was subtracted when enzyme activity was calculated.
IC50 values can be calculated from the inhibition rates of the test compounds at various concentrations.

Assay [1] relates to gastric acid secretion of rats with pyloric ligation induced ulcer. Nature of the assay: Inhibition of gastric acid secretion of rats with pyloric ligation induced ulcer, histamine-stimulated, 1 h after administration (Test Example 2). The class given is in vivo, rat. Conditions: SD male rats, 2 mg/kg i.g., acid output within 3 h of histamine. The method, then: A rat gastric ulcer model, in which rat gastric acid secretion was promoted by pyloric ligation and histamine hydrochloride, was established in the following experiment, for evaluating the effect of the test compounds on inhibition of gastric acid secretion.
Sixteen 7-week-old Sprague-Dawley (SD) male rats with a weight of about 250 g were purchased form Sippr-BK (batch number: 2008001621913). The rats were fed by 4 rats/cage, 12/12 h light/dark cyclic regulation was performed, the temperature was constant at 23±1° C., the humidity was 50-60%, and the rats took food and water freely.
The compound of Example 1, which was prepared into a solution/suspension with 0.5% of sodium carboxymethylcellulose (CMC-Na).
The rats were fasted for about 4 h. 2 mg/kg of the compound of Example 1 or 0.5% of CMC-Na were administrated intragastrically (i. g.) to the rats, and then 1.2 g/kg of urethane was injected intraperitoneally within 1 h. […] After centrifugalizing at 4000 rpm for 5 min, the supernatant fluid was sucked up, and the volume of each sample was measured accurately. […]
(§1) Gastric acid titration: the mean value (mean±S.D.) was calculated in each group by Excel software, t test was performed on the total acid value of gastric acid from treatment groups and model group subjects/animals at each time point after drug administration to judge whether a significant difference existed or not. […]

The test system is the same in assay [2]. Put plainly: Inhibition of gastric acid secretion of rats with pyloric ligation induced ulcer, histamine-stimulated, 24 h after administration (Test Example 3). The note with it: SD male rats, acid output within 3 h of histamine. The class given is in vivo, rat. The method, then: A rat gastric ulcer model, in which rat gastric acid secretion was promoted by pyloric ligation and histamine hydrochloride, was established in the following experiment, for evaluating the effect of the test compounds on inhibition of the gastric acid secretion.
Twenty-four (24) 7-week-old SD male rats with a weight of about 250 g were purchased form Sippr-BK (batch number: 2008001621913). The rats were fed by 4 rats/cage, 12/12 h light/dark cyclic regulation was performed, the temperature was constant at 23±1° C., the humidity was 50-60%, and the rats took food and water freely.
The compound of Example 1 was prepared into a solution/suspension with 0.5% of CMC-Na.
The rats were fasted for about 24 h. 4 mg/kg and 8 mg/kg of the compound of Example 1 or 0.5% of CMC-Na were administrated intragastrically (i. g) to the rats, and then 1.2 g/kg of urethane was injected intraperitoneally within 24 h. […] After centrifugalizing at 4000 rpm for 10 min, the supernatant fluid was sucked up, and the volume of each sample was measured accurately. […]
as §1

SMILES strings stand for the structures. pIC50: −log10 of the molar value.

T1 sequence (P19156 2-1034 limits assumed): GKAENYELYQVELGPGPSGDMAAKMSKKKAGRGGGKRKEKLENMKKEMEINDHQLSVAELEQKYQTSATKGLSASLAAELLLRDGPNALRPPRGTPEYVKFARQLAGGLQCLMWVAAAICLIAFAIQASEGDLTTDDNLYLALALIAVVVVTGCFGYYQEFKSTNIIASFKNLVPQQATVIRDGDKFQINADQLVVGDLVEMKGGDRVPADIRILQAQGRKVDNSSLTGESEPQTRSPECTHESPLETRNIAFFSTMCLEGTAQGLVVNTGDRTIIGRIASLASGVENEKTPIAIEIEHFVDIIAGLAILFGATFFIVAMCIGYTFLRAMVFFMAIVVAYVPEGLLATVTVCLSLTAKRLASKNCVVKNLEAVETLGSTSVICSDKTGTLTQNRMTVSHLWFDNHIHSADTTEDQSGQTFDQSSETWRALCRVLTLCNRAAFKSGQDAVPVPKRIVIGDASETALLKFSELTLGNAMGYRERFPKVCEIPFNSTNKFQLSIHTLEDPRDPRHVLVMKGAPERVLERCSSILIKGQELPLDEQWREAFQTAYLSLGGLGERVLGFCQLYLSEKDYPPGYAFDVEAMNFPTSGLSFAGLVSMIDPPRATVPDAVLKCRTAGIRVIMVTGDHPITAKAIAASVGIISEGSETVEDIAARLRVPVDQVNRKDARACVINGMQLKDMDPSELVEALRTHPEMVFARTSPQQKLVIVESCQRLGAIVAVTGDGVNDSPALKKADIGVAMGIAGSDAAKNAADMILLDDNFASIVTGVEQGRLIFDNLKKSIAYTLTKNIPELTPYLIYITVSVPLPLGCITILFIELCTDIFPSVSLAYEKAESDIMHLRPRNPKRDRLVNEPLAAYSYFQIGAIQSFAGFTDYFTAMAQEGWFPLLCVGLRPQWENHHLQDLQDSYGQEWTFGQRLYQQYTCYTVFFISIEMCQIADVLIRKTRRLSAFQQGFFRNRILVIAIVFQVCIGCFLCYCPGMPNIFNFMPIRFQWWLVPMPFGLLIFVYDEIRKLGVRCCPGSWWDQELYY
T1 sequence (P18434 whole entry partner): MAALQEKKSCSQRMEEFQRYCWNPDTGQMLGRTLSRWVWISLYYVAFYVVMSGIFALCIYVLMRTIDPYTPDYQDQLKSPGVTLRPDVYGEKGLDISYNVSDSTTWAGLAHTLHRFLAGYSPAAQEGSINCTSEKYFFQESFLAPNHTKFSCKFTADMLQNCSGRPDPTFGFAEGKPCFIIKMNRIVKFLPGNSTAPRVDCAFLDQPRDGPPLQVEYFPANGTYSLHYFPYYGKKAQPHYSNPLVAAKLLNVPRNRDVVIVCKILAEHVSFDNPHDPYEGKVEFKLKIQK

The compound `CNCc1cc(-c2ccccc2F)n(S(=O)(=O)c2cccc(OCC(=O)NCCCO)c2)c1` [Example 11] showed a pIC50 against H^+/K^+-ATPase of 7.21.

Take `CNCc1cc(-c2ccccc2F)n(S(=O)(=O)c2cccc(OCC(=O)NCCO)c2)c1` [Example 10, 2-(3-((2-(2-fluorophenyl)-4-((methylamino)methyl)-1H-pyrrol-1-yl)sulfonyl)phenoxy)-N-(2-hydroxyethyl)acetamide]: the pIC50 against H^+/K^+-ATPase was 7.31.

Take `CNCc1cc(-c2ccccc2F)n(S(=O)(=O)c2cccc(OCC3(C(=O)NC)CC3)c2)c1` [Example 5, 1-((3-((2-(2-fluorophenyl)-4-((methylamino)methyl)-1H-pyrrol-1-yl)sulfonyl)phenoxy)methyl)-N-methylcyclopropylcarboxamide]: the pIC50 at H^+/K^+-ATPase was 7.09.

Compound `CNCc1cc(-c2ccccc2F)n(S(=O)(=O)c2ccc(OCC(=O)NC)cc2)c1` [Example 4, 2-(4-((2-(2-fluorophenyl)-4-((methylamino)methyl)-1H-pyrrol-1-yl)sulfonyl)phenoxy)-N-methylacetamide] gave a negative logarithm of the IC50 (pIC50) on H^+/K^+-ATPase of 7.20.

`CNCc1cc(C2=CCCCC2)n(S(=O)(=O)c2cccc(OCC(=O)NC3CC3)c2)c1` [Example 7, 2-(3-((2-(cyclohex-1-en-1-yl)-4-((methylamino)methyl)-1H-pyrrol-1-yl)sulfonyl)phenoxy)-N-cyclopropylacetamide] had a pIC50 at H^+/K^+-ATPase of 7.02.

With `CNCc1cc(-c2ccccc2F)n(S(=O)(=O)c2cccc(OCC(=O)NC)c2)c1` [Example 1, 2-(3-((2-(2-fluorophenyl)-4-((methylamino)methyl)-1H-pyrrol-1-yl)sulfonyl)phenoxy)-N-methylacetamide], the “acid inhibition rate at 1 h” value in assay [1] was 89.3%. This compound had a pIC50 on H^+/K^+-ATPase of 7.68. Besides, the “acid inhibition rate at 24 h” value in assay [2] (4 mg/kg i.g.) stood at 89.6%; in assay [2] (8 mg/kg i.g.), 99.4%.

At H^+/K^+-ATPase, `CNCc1cc(-c2ccccc2F)n(S(=O)(=O)c2ccc(OCC3(C(=O)NC)CC3)cc2)c1` [Example 6, 1-((4-((2-(2-fluorophenyl)-4-((methylamino)methyl)-1H-pyrrol-1-yl)sulfonyl)phenoxy)methyl)-N-methylcyclopropylcarboxamide] showed a pIC50 of 6.97.
